Experimental findings from patent US12472166B2, “Inhibition of mycobacterial type VII secretion” (priority 2019, dated 2025) are described below.

Entries after “also recorded” stand apart in the source; their conditions may differ.

Holding throughout (format): cell-based
Test [1] concerns ESX-5 dependent secretion.
Test [2] relates to PE_PGRS and EsxN (ESX-5 dependent secretion).
Test [3] concerns Apa (SEC dependent secretion).

Take `Cc1cccc(-c2nsc(SCC(=O)NCC3CCCO3)n2)c1` (stereo not shown) [Compound I-39, reference compound]: in test [1], the “effect on ESX-5 secretion activity (lipase DGGR vs viability REMA)” value (shortened to “effect … (lipase DGGR vs viability REMA)”) is reported as “do not affect the activity of ESX-5”.
On to `O=C(CSc1nc(-c2ccccc2)ns1)NC1CCCC1` [Compound I-5], for which the “effect … (lipase DGGR vs viability REMA)” value in test [1] is recorded as “significant reduction in lipase activity (substrate DGGR) before the bacterial viability (REMA) is affected”.
With `CO[C@H]1/C=C/O[C@@]2(C)Oc3c(C)c(O)c4c(O)c(c(/C=N/N5CCN(C)CC5)c(O)c4c3C2=O)NC(=O)/C(C)=C\C=C\[C@H](C)[C@H](O)[C@@H](C)[C@@H](O)[C@@H](C)[C@H](OC(C)=O)[C@@H]1C` [Rifampin, reference compound], the “lipase activity (DGGR) readout, control condition” value in test [1] is “negative”.
Take `CCOC(=O)CNC(=O)CSc1nc(-c2cccc(C)c2)ns1` [Compound I-40, reference compound]: the “effect … (lipase DGGR vs viability REMA)” value in test [1] is on record as “affect ESX-5 secretion activity”.
On to `COc1ccc(-c2nsc(SCC(=O)NCC3CCCC3)n2)cc1` [Compound I-38, reference compound], for which, in test [1], the “effect … (lipase DGGR vs viability REMA)” value is “do not affect the activity of ESX-5”.
For the molecule `COc1ccc(-c2nsc(SCC(=O)NC3CCCC3)n2)cc1` [Compound I-12], in test [1], the “effect on secretion of the reporter lipase LipY when mspA was over-produced” value is given as “showed no changes” and the “lipase secretion compared to DMSO treated control” value was “significant reduction of lipase secretion”. Also, the “secreted PE_PGRS proteins compared to DMSO control” value in test [2] is “most drastic decrease; also recorded: secretion inhibition similar to the non-functional ESX-5 mutant”. Also, the “secretion of Apa” value in test [3] was “did not affect secretion”.
For `CCOC(=O)CNC(=O)CSc1nc(-c2ccccc2)ns1` [Compound I-41, reference compound], the “effect … (lipase DGGR vs viability REMA)” value in test [1] is given as “affect ESX-5 secretion activity”.
